Measured values as given in patent US20020198142A1, “Cyclopeptide derivatives” (Merck Patent GmbH, priority 1997, published 2002).

test system: mouse MC3T3 H1 osteoblast cultures; assay: Cell adhesion test: adhesion of osteoblast cultures in vitro to RGD peptide-coated material surfaces; type: cell-based; settings: 50,000 cells/cm^2 inoculated, serum-free medium, 37°/95% atmospheric humidity, one hour, adhered cells/inoculated cells x 100
Description: Example of Cell Adhesion Test
The adhesion of mouse MC3T3 H1 osteoblast cultures in vitro to RGD peptide-coated material surfaces was investigated. In the course of this, 50,000 cells/cm^2 were inoculated and, after incubation in serum-free medium at 37°/95% atmospheric humidity for one hour, the proportion of adherent cells was determined.
Cell adhesion rate [%]=adhered cells/inoculated cells x 100

Row | Substance | cell adhesion rate [%]
1 | cyclo-(Arg-Gly-Asp-D-Phe-Lys(N^ε—(CO—CH2—O—CH2CH2—O—CH2CH2—NH)2—CO—(CH2)5—NH—CO—CH═CH2)) | 110.5
2 | cyclo-(Arg-Gly-Asp-D-Phe-Lys(N^ε—CO—(CH2)5—NH—CO—(CH2)5—NH—CO—CH═CH2)) | 92.4
3 | cyclo-(Arg-Gly-Asp-D-Phe-Lys(N^ε—CO—(CH2)5—NH—CO—CH═CH2)) | 11.3
4 | cyclo-(Arg-Gly-Asp-D-Phe-Lys(N^ε—CO—CH2CH2CO—NH—CH2CH2—SH)) | 86.2
5 | cyclo-(Arg-Gly-Asp-D-Phe-Lys(N^ε—CO—CH2—O—CH2CH2—O—CH2CH2—NH—CO—(CH2)5—NH—CO—CH═CH2)) | 109.0
